From ChEMBL document CHEMBL5518172, “Discovery of hydroxamate as a promising scaffold dually inhibiting metallo- and serine-β-lactamases” (Eur J Med Chem, 2024)
Activity calls are given as the source filed them. No cut-off for these calls is given here.

Key:
Escherichia coli [1] = assay: Synergistic antibacterial activity against Escherichia coli BL21 (DE3) harboring NDM-1 assessed as fold decrease in meropenem MIC at 64 microg/ml measured after 16 hrs by CLSI protocol based broth microdilution method; format: functional; settings: dose 64 µg/ml
Escherichia coli [2] = assay: Synergistic antibacterial activity against Escherichia coli clinical isolate 10 assessed as decrease in bacterial colony at 128 microg/ml incubated for 12 hrs in presence of meropenem by imaging analysis; format: functional, organism-based; settings: dose 128.0 µg/ml
Escherichia coli [3] = assay: Synergistic antibacterial activity against Escherichia coli BL21 (DE3) harboring metallo-beta-lactamase IMP-1 assessed as decrease in bacterial colony at 128 microg/ml incubated for 12 hrs in presence of meropenem by imaging analysis; format: functional, organism-based; settings: dose 128.0 µg/ml
[4] = Inhibition of recombinant metallo-beta-lactamase IMP-1 (unknown origin) expressed in Escherichia coli BL21 (DE3) cells using meropenem as substrate by spectrometric analysis; parameters: species or system Bacteria
Escherichia coli [5] = assay: Synergistic antibacterial activity against Escherichia coli BL21 (DE3) harboring serine beta lactamase OXA-48 assessed as meropenem MIC at 64 microg/ml measured after 16 hrs by CLSI protocol based broth microdilution method (reference value: 1 microg/ml); format: functional; settings: dose 64 µg/ml
Escherichia coli [6] = assay: Synergistic antibacterial activity against Escherichia coli BL21 (DE3) harboring NDM-1 assessed as meropenem MIC at 64 microg/ml measured after 16 hrs by CLSI protocol based broth microdilution method (reference value: 256 microg/ml); format: functional; settings: dose 64 µg/ml
Escherichia coli [7] = assay: Antibacterial activity against Escherichia coli harboring serine beta-lactamase OXA-48 infected in Kunming mouse model assessed as reduction in bacterial load in spleen at 20 mg/kg, ip; format: functional, organism-based
Escherichia coli [8] = assay: Synergistic antibacterial activity against Escherichia coli BL21 (DE3) harboring metallo-beta-lactamase IMP-1 assessed as meropenem MIC at 64 microg/ml measured after 16 hrs by CLSI protocol based broth microdilution method (reference value: 64 microg/ml); format: functional; settings: dose 64 µg/ml
Escherichia coli [9] = assay: Synergistic antibacterial activity against Escherichia coli BL21 (DE3) harboring serine beta lactamase OXA-48 assessed as fold decrease in meropenem MIC at 64 microg/ml measured after 16 hrs by CLSI protocol based broth microdilution method; format: functional; settings: dose 64 µg/ml
[10] = Inhibition of recombinant serine beta lactamase OXA-48 (unknown origin) expressed in Escherichia coli BL21 (DE3) cells using meropenem as substrate by spectrometric analysis; parameters: species or system Bacteria
Escherichia coli [11] = assay: Synergistic antibacterial activity against Escherichia coli BL21 (DE3) harboring serine beta lactamase KPC-2 assessed as meropenem MIC at 64 microg/ml measured after 16 hrs by CLSI protocol based broth microdilution method (reference value: 16 microg/ml); format: functional; settings: dose 64 µg/ml
Escherichia coli [12] = assay: Synergistic antibacterial activity against Escherichia coli BL21 (DE3) harboring serine beta lactamase OXA-48 assessed as decrease in bacterial colony at 128 microg/ml incubated for 12 hrs in presence of meropenem by imaging analysis; format: functional, organism-based; settings: dose 128.0 µg/ml
[13] = Inhibition of recombinant serine beta lactamase KPC-2 (unknown origin) expressed in Escherichia coli BL21 (DE3) cells using meropenem as substrate by spectrometric analysis; parameters: species or system Bacteria
Escherichia coli [14] = assay: Synergistic antibacterial activity against Escherichia coli BL21 (DE3) harboring metallo-beta lactamase IMP-1 assessed as fold decrease in meropenem MIC at 64 microg/ml measured after 16 hrs by CLSI protocol based broth microdilution method; format: functional; settings: dose 64 µg/ml
[15] = target: Metallo-beta-lactamase type 2 (Bacteria, UniProt C7C422); assay: Inhibition of recombinant NDM-1 (unknown origin) expressed in Escherichia coli BL21 (DE3) cells using meropenem as substrate by spectrometric analysis
Chain of Metallo-beta-lactamase type 2 (C7C422 whole entry): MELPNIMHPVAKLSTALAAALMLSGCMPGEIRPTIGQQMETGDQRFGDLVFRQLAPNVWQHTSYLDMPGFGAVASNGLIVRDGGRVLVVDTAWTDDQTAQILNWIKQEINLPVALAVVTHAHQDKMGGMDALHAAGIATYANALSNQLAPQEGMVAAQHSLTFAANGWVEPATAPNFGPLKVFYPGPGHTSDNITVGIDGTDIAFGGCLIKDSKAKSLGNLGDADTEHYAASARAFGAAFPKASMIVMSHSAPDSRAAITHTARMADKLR

Escherichia coli [16] = assay: Antibacterial activity against Escherichia coli harboring serine beta-lactamase OXA-48 infected in Kunming mouse model assessed as reduction in bacterial load in liver at 20 mg/kg, ip; format: functional, organism-based
Escherichia coli [17] = assay: Synergistic antibacterial activity against Escherichia coli BL21 (DE3) harboring NDM-1 assessed as decrease in bacterial colony at 128 microg/ml incubated for 12 hrs in presence of meropenem by imaging analysis; format: functional, organism-based; settings: dose 128.0 µg/ml
Escherichia coli [18] = assay: Synergistic antibacterial activity against Escherichia coli BL21 (DE3) harboring serine beta lactamase KPC-2 assessed as decrease in bacterial colony at 128 microg/ml incubated for 12 hrs in presence of meropenem by imaging analysis; format: functional, organism-based; settings: dose 128.0 µg/ml
[19] = Cytotoxicity against mouse L929 cells assessed as cell viability upto 200 uM incubated for 48 hrs by CCK8 assay relative to control; format: toxicity, cell-based; settings: read-out: Activity
Bacteria [20] = assay: Inhibition of recombinant serine beta lactamase OXA-48 (unknown origin) expressed in Escherichia coli BL21 (DE3) cells using meropenem as substrate at 20 uM by spectrometric analysis relative to control
Bacteria [21] = assay: Inhibition of recombinant serine beta lactamase KPC-2 (unknown origin) expressed in Escherichia coli BL21 (DE3) cells using meropenem as substrate at 20 uM by spectrometric analysis relative to control
Escherichia coli [22] = assay: Synergistic antibacterial activity against Escherichia coli harboring serine beta-lactamase OXA-48 infected in Kunming mouse model assessed as reduction in bacterial load in liver at 20 mg/kg, ip co-administered with 1 mg/kg of meropenem; format: functional, organism-based

For `CC(C)COC(=O)ONC(=O)CCC1CCCCC1`, the “fold change (FC)” value (Escherichia coli [1]) was 2, the Activity (Escherichia coli [2]) was “Active” and the Activity (Escherichia coli [3]) was “Active”. For the same molecule, the IC50 [4] was 4.49 µM, the MIC (Escherichia coli [5]) was 0.063 mg/L and the MIC (Escherichia coli [6]) was 64 mg/L. For the same molecule, the Activity (Escherichia coli [7]) was “inactive”, the MIC (Escherichia coli [8]) was 32 mg/L and the “fold change (FC)” value (Escherichia coli [9]) was 16. For the same molecule, the IC50 [10] was 2.05 µM, the MIC (Escherichia coli [11]) was 16 mg/L and the Activity (Escherichia coli [12]) was “Active”. The IC50 [13] was 0.69 µM, the “fold change (FC)” value (Escherichia coli [14]) was 2 and the IC50 [15] was 4.73 µM. For the same molecule, the Activity (Escherichia coli [16]) was “inactive”, the Activity (Escherichia coli [17]) was “Active” and the Activity (Escherichia coli [18]) was “Active”. It also gave a viability at 48 h, up to 200 µM [19] greater than 80%, an inhibition (Bacteria [20]) greater than 90% and an inhibition (Bacteria [21]) greater than 90%. For the same molecule, the Activity (Escherichia coli [22]) was “Active”.
